The source of these data is patent publication US10647721B2, “Bicyclic heteroaryl derivatives” (Hoffmann-La Roche Inc., priority 2016, dated 2020).

The structures appear in SMILES notation.

This test relates to γ-secretase. As to the kind of experiment: Cellular γ-secretase assay (inhibition of Aβ42 secretion, AlphaLisa). Format: cell-based. To be noted: human neuroglioma H4 cells overexpressing human APP695 Swedish double mutation, 24 hr compound incubation. How it is done:
Cellular γ-Secretase Assay
Human neuroglioma H4 cells overexpressing human APP695 with the Swedish double mutation (K595N/M596L) were plated at 30,000 cells/well/100 μl in 96-well plates in IMDM media containing 10% FCS, 0.2 mg/l Hygromycin B and incubated at 37° C., 5% CO2.
3-4 hr post plating, compounds are a diluted in media and 50 μl is added as 1.5-fold concentrate to achieve the final concentration. Compound incubation is performed for 24 hr. Final doses typically range from 4 μm down to 0.0013 μm in half-log steps resulting in a eight point dose response curve.
Appropriate controls using vehicle only and reference compound were applied to this assay. The final concentration of Me2SO was 0.4%.
After incubation at 37° C., 5% CO2, the supernatant was subjected to quantification of secreted Aβ42 by the means of an AlphaLisa assay kit (Human Amyloid beta 1-42 Kit: Cat # AL203C, Perkin Elmer). 20 μl of the cell culture supernatant was transferred to an assay plate. Then 10 μl of a mixture of the AlphaLisa coupled capture antibody and the biotinylated detection antibody was added and incubated for 3 hours at room temperature while softly shaking the assay plate. After a further addition of 20 μl of the Donor beads the assay plate was incubated for 30 min at room temperature and constant shaking without exposure to direct light. The assay plate was then read on a Paradigm AlphaLisa Reader using the build-in program with excitation at 680 nm and emission at […].
The measured signals were then used to calculate IC50 values for inhibition of Aβ42 secretion by nonlinear regression fit analysis using XLfit 5.3 software (IDBS).
On the technique in general: In Alpha technology, singlet oxygen from a donor bead excites a nearby acceptor bead.

For orientation: EC50 means the concentration at which the effect is half-maximal. The low end stands for a more potent agent, the high end for a less potent agent. As to `COc1cc(Nc2nc3n(n2)CCCN3c2ccc(F)c(F)c2)cnc1-n1cnc(Cl)c1` [Example 5, N-[6-(4-chloroimidazol-1-yl)-5-methoxy-3-pyridyl]-4-(3,4-difluorophenyl)-6,7-dihydro-5H-[1,2,4]triazolo[1,5-a]pyrimidin-2-amine], the response was half-maximal at 21.4 nM (EC50).
For `COc1cc(Nc2nc3n(n2)CCCN3c2cccc(F)c2)ccc1-n1cnc(Cl)c1` [Example 32, N-[4-(4-chloroimidazol-1-yl)-3-methoxy-phenyl]-4-(3-fluorophenyl)-6,7-dihydro-5H-[1,2,4]triazolo[1,5-a]pyrimidin-2-amine] the value was 14.1 nM; for `COc1cc(Nc2nc3n(n2)CCCCN3c2ccc(F)c(F)c2)ccc1-n1cnc(Cl)c1` [Example 9, N-[4-(4-chloroimidazol-1-yl)-3-methoxy-phenyl]-4-(3,4-difluorophenyl)-5,6,7,8-tetrahydro-[1,2,4]triazolo[1,5-a][1,3]diazepin-2-amine], 22.4 nM; for `COc1cc(Nc2nc3n(n2)CCCN3c2ccc(F)c(F)c2F)ccc1-n1cnc(C)n1` [Example 16, N-[3-methoxy-4-(3-methyl-1,2,4-triazol-1-yl)phenyl]-4-(2,3,4-trifluorophenyl)-6,7-dihydro-5H-[1,2,4]triazolo[1,5-a]pyrimidin-2-amine], 32.9 nM.
`Cc1ncc(-c2ncc(Nc3nc4n(n3)CCCN4c3ccc(F)cc3)cc2F)o1` [Example 39, N-[5-fluoro-6-(2-methyloxazol-5-yl)-3-pyridyl]-4-(4-fluorophenyl)-6,7-dihydro-5H-[1,2,4]triazolo[1,5-a]pyrimidin-2-amine]: the 50% effective concentration (EC50) was determined as 17.5 nM. Compared with the last molecule, the EC50 is about 1.9-fold lower.
As for `COc1cc(Nc2nc3n(n2)CCCN3c2ccc(F)cc2)cnc1-n1cnc(Cl)c1` [Example 38, N-[6-(4-chloroimidazol-1-yl)-5-methoxy-3-pyridyl]-4-(4-fluorophenyl)-6,7-dihydro-5H-[1,2,4]triazolo[1,5-a]pyrimidin-2-amine], the figure is 13.8 nM.
As for `COc1cc(Nc2nc3n(n2)CCCN3c2ccc(F)c(F)c2)ccc1-n1cnc(Cl)n1` [Example 12, N-[4-(3-chloro-1,2,4-triazol-1-yl)-3-methoxy-phenyl]-4-(3,4-difluorophenyl)-6,7-dihydro-5H-[1,2,4]triazolo[1,5-a]pyrimidin-2-amine], the figure is 29.8 nM; as for `COc1cc(Nc2nc3n(n2)CCCN3c2ccc(F)cc2)ccc1-n1cnc(C)n1` [Example 33, 4-(4-fluorophenyl)-N-[3-methoxy-4-(3-methyl-1,2,4-triazol-1-yl)phenyl]-6,7-dihydro-5H-[1,2,4]triazolo[1,5-a]pyrimidin-2-amine], 35.2 nM; as for `COc1cc(Nc2nc3n(n2)CCCN3c2ccc(F)c(F)c2)ccc1-n1cnc(C)n1` [Example 2, 4-(3,4-difluorophenyl)-N-[3-methoxy-4-(3-methyl-1,2,4-triazol-1-yl)phenyl]-6,7-dihydro-5H-[1,2,4]triazolo[1,5-a]pyrimidin-2-amine], 14.2 nM.
As for `COc1cc(Nc2nc3n(n2)CCCN3c2ccc(F)c(F)c2)ccc1-c1cnn(C)c1` [Example 20, 4-(3,4-difluorophenyl)-N-[3-methoxy-4-(1-methylpyrazol-4-yl)phenyl]-6,7-dihydro-5H-[1,2,4]triazolo[1,5-a]pyrimidin-2-amine], the figure is 28.9 nM; as for `N#Cc1cc(Nc2nc3n(n2)CCCN3c2ccc(F)c(F)c2)ccc1-n1cnc(Cl)c1` [Example 24, 2-(4-chloroimidazol-1-yl)-5-[[4-(3,4-difluorophenyl)-6,7-dihydro-5H-[1,2,4]triazolo[1,5-a]pyrimidin-2-yl]amino]benzonitrile], 9 nM.
On to `COc1cc(Nc2nc3n(n2)CCCN3c2cc(F)cc(F)c2)ccc1-n1cnc(C)n1` [Example 41, 4-(3,5-difluorophenyl)-N-[3-methoxy-4-(3-methyl-1,2,4-triazol-1-yl)phenyl]-6,7-dihydro-5H-[1,2,4]triazolo[1,5-a]pyrimidin-2-amine], for which it took 14.2 nM to reach a half-maximal effect (EC50).
In the case of `COc1cc(Nc2nc3n(n2)CCCN3c2ccc(F)c(F)c2)ccc1-n1cnc(F)c1` [Example 40, 4-(3,4-difluorophenyl)-N-[4-(4-fluoroimidazol-1-yl)-3-methoxy-phenyl]-6,7-dihydro-5H-[1,2,4]triazolo[1,5-a]pyrimidin-2-amine], the EC50 is 20.3 nM.
For `COc1cc(Nc2nc3n(n2)CCCN3c2ccc(F)c(F)c2F)ccc1-c1cnc(C)o1` [Example 15, N-[3-methoxy-4-(2-methyloxazol-5-yl)phenyl]-4-(2,3,4-trifluorophenyl)-6,7-dihydro-5H-[1,2,4]triazolo[1,5-a]pyrimidin-2-amine] the value was 14.4 nM.
In turn, `COc1cc(Nc2nc3n(n2)CCCN3c2cc(F)cc(F)c2)ccc1-n1cnc(Cl)c1` [Example 42, N-[4-(4-chloroimidazol-1-yl)-3-methoxy-phenyl]-4-(3,5-difluorophenyl)-6,7-dihydro-5H-[1,2,4]triazolo[1,5-a]pyrimidin-2-amine] came in with a concentration giving a half-maximal response (EC50) of 7.4 nM. This EC50 is about 1.9-fold lower than that of the molecule before.
For the molecule `Fc1ccc(N2CCCn3nc(Nc4ccc(-n5cncn5)c(F)c4)nc32)cc1F` [Example 14, 4-(3,4-difluorophenyl)-N-[3-fluoro-4-(1,2,4-triazol-1-yl)phenyl]-6,7-dihydro-5H-[1,2,4]triazolo[1,5-a]pyrimidin-2-amine], the EC50 was 89.9 nM.
Turning to `Fc1ccc(N2CCCn3nc(Nc4ccc(-n5cnc(Cl)c5)c(F)c4)nc32)cc1` [Example 36, N-[4-(4-chloroimidazol-1-yl)-3-fluoro-phenyl]-4-(4-fluorophenyl)-6,7-dihydro-5H-[1,2,4]triazolo[1,5-a]pyrimidin-2-amine], the response was half-maximal at 39.9 nM (EC50).
For `Cc1cn(-c2ccc(Nc3nc4n(n3)CCCN4c3ccc(F)c(F)c3)cc2)nn1` [Example 47, 4-(3,4-difluorophenyl)-N-[4-(4-methyltriazol-1-yl)phenyl]-6,7-dihydro-5H-[1,2,4]triazolo[1,5-a]pyrimidin-2-amine] the value was 52.1 nM; for `N#Cc1cc(Nc2nc3n(n2)CCCN3c2ccc(F)cc2)ccc1-n1cnc(Cl)c1` [Example 35, 2-(4-chloroimidazol-1-yl)-5-[[4-(4-fluorophenyl)-6,7-dihydro-5H-[1,2,4]triazolo[1,5-a]pyrimidin-2-yl]amino]benzonitrile], 21 nM; for `Cc1ncn(-c2ccc(Nc3nc4n(n3)CCCN4c3ccc(F)c(F)c3)cc2F)n1` [Example 11, 4-(3,4-difluorophenyl)-N-[3-fluoro-4-(3-methyl-1,2,4-triazol-1-yl)phenyl]-6,7-dihydro-5H-[1,2,4]triazolo[1,5-a]pyrimidin-2-amine], 34.5 nM.
